Values of other authors in PMC6311893, “Computational prediction of plasma protein binding of cyclic peptides from small molecule experimental data using sparse modeling techniques” (BMC Bioinformatics, 2018).

Tested on: plasma protein
Conditions: cited from earlier work

In the case of `Cc1ccc(C(N)C(=O)NC2C(=O)N3C2SC(C)(C)C3C(=O)O)cc1` (stereo not drawn) [penicillin27], the “PPB (fb)” value is given as 0.6.

Same assay, conditions: fraction bound to plasma protein; small molecule dataset, sheet 1-SM (Set Dte = test, Dtr = training); ref Ingle et al.; cited from earlier work

Compared with `CCCC(=O)N1CCCN(c2nc(N)c3cc(OC)c(OC)cc3n2)CC1` [Bunazosin], `CCN1CCN(c2cc3c(cc2F)c(=O)c(C(=O)O)cn3-c2ccc(OC)cc2)CC1` [5cb (p-OCH3__N-C2H5)] is lower in “PPB (fb)” value: 0.95 for the first, 0.51 for the second.

Going from `CC(C(=O)O)c1ccc2c(c1)[nH]c1ccc(Cl)cc12` (stereo not drawn) [Carprofen] to `CN[C@@H]1CCc2[nH]c3ccc(C(N)=O)cc3c2C1` [Frovatriptan], the “PPB (fb)” value falls from 0.99 to 0.15.

First: C[C@@H]1CN([C@H]2CC[C@](C#N)(c3ccc(F)cc3)CC2)CC[C@]1(C(=O)O)c1ccccc1 [levocabastine]
Second: COc1cccc(-n2cc(C(=O)O)c(=O)c3cc(F)c(N4CCN(C)CC4)cc32)c1 [5ba(m-OCH3__N-CH3)]
The “PPB (fb)” value of the first is higher: 0.55 for the first, 0.54 for the second.

Compared with `COCC(=O)O[C@]1(CCN(C)CCCc2nc3ccccc3[nH]2)CCc2cc(F)ccc2[C@@H]1C(C)C` [Mibefradil], `CCN(CC)CCCN(c1ccccc1)C1Cc2ccccc2C1` [aprindine] is lower in “PPB (fb)” value: 0.99 for the first, 0.95 for the second.

First: COC(=O)N[C@H](C(=O)N[C@@H](Cc1ccccc1)[C@@H](O)CN(Cc1ccc(-c2ccccn2)cc1)NC(=O)[C@@H](NC(=O)OC)C(C)(C)C)C(C)(C)C [Atazanavir]
Second: COc1ccccc1OCCNCC(O)c1ccc(C)c(S(N)(=O)=O)c1 (stereo not drawn) [amosulalol]
The “PPB (fb)” value of the first is lower: 0.86 for the first, 0.98 for the second.

Going from `CC(=O)[C@]1(O)Cc2c(O)c3c(c(O)c2[C@@H](O[C@H]2C[C@H](N)[C@H](O)[C@H](C)O2)C1)C(=O)c1ccccc1C3=O` [Idarubicin] to `CC1(C)SC2C(NC(=O)C(Cl)c3cccc(Cl)c3)C(=O)N2C1C(=O)O` (stereo not drawn) [penicillin23], the “PPB (fb)” value falls from 0.95 to 0.94.

Compared with `O=C(O)[C@H]1/C(=C/CO)O[C@@H]2CC(=O)N21` [clavulanate], `Cc1cn([C@H]2C[C@H](N=[N+]=[N-])[C@@H](CO)O2)c(=O)[nH]c1=O` [Zidovudine] is higher in “PPB (fb)” value: 0.23 for the first, 0.28 for the second.

Going from `CC(=O)Nc1ccccc1` [acetanilide] to `CC(=O)Nc1ccc(/C=N/NC(N)=S)cc1` [amithiozone], the “PPB (fb)” value rises from 0.07 to 0.95.

First: NC[C@H]1O[C@H](O[C@H]2[C@H](O)[C@@H](O[C@H]3O[C@H](CO)[C@@H](O)[C@H](N)[C@H]3O)[C@H](N)C[C@@H]2N)[C@H](N)C[C@@H]1O [Tobramycin]
Second: C=C[C@H]1C[N@@]2CC[C@H]1C[C@@H]2[C@@H](O)c1ccnc2ccc(OC)cc12 [Quinidine]
The “PPB (fb)” value of the first is lower: 0.05 for the first, 0.74 for the second.

Compared with `CCN(CC)C(=S)SSC(=S)N(CC)CC` [disulfiram], `CCN(CC)C(=O)Nc1ccc(OCC(O)CNC(C)(C)C)c(C(C)=O)c1` (stereo not drawn) [celiprolol] is lower in “PPB (fb)” value: 0.5 for the first, 0.25 for the second.

First: O=C1c2c(O)ccc(O)c2C(=O)c2c(NCCNCCO)ccc(NCCNCCO)c21 [Mitoxantrone]
Second: O=C1CCc2cc(OCCCCc3nnnn3C3CCCCC3)ccc2N1 [cilostazol]
The “PPB (fb)” value of the first is lower: 0.8 for the first, 0.96 for the second.

First: CCN(CC)CCNC(=O)c1cc(Br)c(N)cc1OC [Bromopride]
Second: CCOC(=O)n1ccn(C)c1=S [carbimazole]
The “PPB (fb)” value of the first is higher: 0.4 for the first, 0.07 for the second.

First: C=CCOc1ccccc1OCC(O)CNC(C)C (stereo not drawn) [oxprenolol]
Second: N=C(N)NC(=O)c1nc(Cl)c(N)nc1N [amiloride]
The “PPB (fb)” value of the first is higher: 0.77 for the first, 0.4 for the second.

Same assay, conditions: fraction bound to plasma protein; small molecule dataset, sheet 1-SM, Set Dtr; ref Ingle et al.; cited from earlier work

Going from `C[C@@H]1CC(=O)NN=C1c1ccc(NN=C(C#N)C#N)cc1` [Levosimendan] to `CN(C)CCCC1(c2ccc(F)cc2)OCc2cc(C#N)ccc21` (stereo not drawn) [Citalopram], the “PPB (fb)” value falls from 0.98 to 0.68.

Compared with `NS(=O)(=O)c1cc(C(=O)O)cc(N2CCCC2)c1Oc1ccccc1` [Piretanide], `O=c1n(CCCN2CCN(c3cccc(Cl)c3)CC2)nc2ccccn12` [trazodone] is lower in “PPB (fb)” value: 0.94 for the first, 0.92 for the second.

Compared with `COc1nc(N)nc2c1ncn2[C@@H]1O[C@H](CO)[C@@H](O)[C@@H]1O` [Nelarabine], `Cn1nnnc1SCC1=C(C(=O)O)N2C(=O)[C@@H](NC(=O)[C@H](O)c3ccccc3)[C@H]2SC1` [Cefamandole] is higher in “PPB (fb)” value: 0.2 for the first, 0.74 for the second.

Going from `COc1ccc([C@@H]2Sc3ccccc3N(CCN(C)C)C(=O)[C@@H]2OC(C)=O)cc1` [Diltiazem] to `CC(CN(C)C)CN1c2ccccc2Sc2ccccc21` (stereo not drawn) [trimeprazine], the “PPB (fb)” value rises from 0.81 to 0.85.

First: O=C(NCCN1CCOCC1)c1ccc(Cl)cc1 [Moclobemide]
Second: CNCCCN1c2ccccc2CCc2ccccc21 [Desipramine]
The “PPB (fb)” value of the first is lower: 0.36 for the first, 0.85 for the second.

Compared with `O=c1[nH]cc(F)c(=O)[nH]1` [Fluorouracil], `CC(C)n1c(/C=C/C(O)CC(O)CC(=O)O)c(-c2ccc(F)cc2)c2ccccc21` (stereo not drawn) [Fluvastatin] is higher in “PPB (fb)” value: 0.23 for the first, 0.99 for the second.

For `CC(CN1c2ccccc2Sc2ccccc21)N(C)C` (stereo not drawn) [Promethazine], the “PPB (fb)” value is given as 0.88.

Same assay, conditions: fraction bound to plasma protein; small molecule dataset, sheet 1-SM; ref Ingle et al.; cited from earlier work

Compared with `CCCc1nc(C)c2c(=O)[nH]c(-c3cc(S(=O)(=O)N4CCN(CC)CC4)ccc3OCC)nn12` [Vardenafil], `CN1CCN(CC(=O)N2c3ccccc3C(=O)Nc3cccnc32)CC1` [pirenzepine] is lower in “PPB (fb)” value: 0.95 for the first, 0.1 for the second.

Compared with `COC(C(=O)NC1C(=O)N2C1SC(C)(C)C2C(=O)O)c1cccc([N+](=O)[O-])c1` (stereo not drawn) [penicillin46], `CC1(C)SC2C(NC(=O)C(Cl)c3ccc(Cl)cc3)C(=O)N2C1C(=O)O` (stereo not drawn) [penicillin24] is higher in “PPB (fb)” value: 0.6 for the first, 0.94 for the second.

Compared with `Cc1cc2nc3c(=O)[nH]c(=O)nc-3n(C[C@H](O)[C@H](O)[C@H](O)CO)c2cc1C` [riboflavin], `CCCc1c2oc(C(=O)O)cc(=O)c2cc2c(=O)cc(C(=O)O)n(CC)c12` [nedocromil] is higher in “PPB (fb)” value: 0.6 for the first, 0.8 for the second.

Compared with `O=C(O)c1cccnc1` [niacin], `NC(=O)c1cnccn1` [Pyrazinamide] is lower in “PPB (fb)” value: 0.22 for the first, 0.1 for the second.

Compared with `OCCOCCN1CCN(C2=Nc3ccccc3Sc3ccccc32)CC1` [quetiapine], `OCCN1CCN(CCC=C2c3ccccc3Sc3ccc(C(F)(F)F)cc32)CC1` [flupenthixol] is higher in “PPB (fb)” value: 0.83 for the first, 0.95 for the second.

First: COc1ccc2c(c1)N(C[C@H](C)CN(C)C)c1ccccc1S2 [methotrimeprazine]
Second: c1ccc2c(c1)Sc1ccccc1N2CC1CN2CCC1CC2 (stereo not drawn) [mequitazine]
The “PPB (fb)” value of the first is higher: 0.98 for the first, 0.9 for the second.

Compared with `COC(=O)[C@@H]1CC2=CC(=O)CC[C@]2(C)[C@@]23O[C@@H]2C[C@@]2(C)[C@@H](CC[C@@]24CCC(=O)O4)[C@H]13` [eplerenone], `CO[C@H]1C[C@@H]2CC[C@@H](C)[C@@](O)(O2)C(=O)C(=O)N2CCCC[C@H]2C(=O)O[C@H]([C@H](C)C[C@@H]2CC[C@@H](OCCO)[C@H](OC)C2)CC(=O)[C@H](C)/C=C(\C)[C@@H](O)[C@@H](OC)C(=O)[C@H](C)C[C@H](C)/C=C/C=C/C=C/1C` [everolimus] is higher in “PPB (fb)” value: 0.46 for the first, 0.74 for the second.

Going from `CCC(CC)(CC)C(=O)NC1C(=O)N2C1SC(C)(C)C2C(=O)O` (stereo not drawn) [penicillin20] to `COc1cnc2ccccc2c1C(=O)NC1C(=O)N2C1SC(C)(C)C2C(=O)O` (stereo not drawn) [penicillin76], the “PPB (fb)” value falls from 0.94 to 0.57.

Going from `CCOC(=O)[C@H](CCc1ccccc1)N[C@@H](C)C(=O)N1CCC[C@H]1C(=O)O` [enalapril] to `CC(C(=O)O)c1cccc(Oc2ccccc2)c1` (stereo not drawn) [fenoprofen], the “PPB (fb)” value rises from 0.55 to 0.99.

Going from `CC(=O)Oc1cc(C(C)C)c(OCCN(C)C)cc1C` [Moxisylyte] to `CCc1cccc2c3c([nH]c12)C(CC)(CC(=O)O)OCC3` (stereo not drawn) [etodolac], the “PPB (fb)” value rises from 0.26 to 0.99.

Compared with `CNc1nc(N(C)C)nc(N(C)C)n1` [pentamethylmelamine], `COCCOc1cnc(NS(=O)(=O)c2ccccc2)nc1` [glymidine] is higher in “PPB (fb)” value: 0.75 for the first, 0.8 for the second.

Compared with `NC(=O)c1ncn([C@@H]2O[C@H](CO)[C@@H](O)[C@H]2O)n1` [Ribavirin], `[H]/N=C(/N)N[C@H]1[C@H](O)[C@@H](O)[C@H](O[C@@H]2O[C@@H](C)[C@](O)(C=O)[C@H]2O[C@@H]2O[C@@H](CO)[C@H](O)[C@@H](O)[C@@H]2NC)[C@@H](N/C(N)=N\[H])[C@@H]1O` [Streptomycin] is higher in “PPB (fb)” value: 0.02 for the first, 0.37 for the second.

First: CO/N=C1\CN(c2nc3c(cc2F)c(=O)c(C(=O)O)cn3C2CC2)CC1CN (stereo not drawn) [Gemifloxacin]
Second: COc1cc(Cc2cnc(N)nc2N)c2c(c1OC)OC(C1CC1)C=C2 (stereo not drawn) [iclaprim]
The “PPB (fb)” value of the first is lower: 0.64 for the first, 0.93 for the second.

Going from `O=C(O)c1ccc(O)c(O)c1` [protocatechuic acid] to `CS(=O)(=O)c1ccc(C2=C(c3ccccc3)C(=O)OC2)cc1` [rofecoxib], the “PPB (fb)” value rises from 0.21 to 0.87.

Compared with `CC1=C(/C=C/C(C)=C/C=C/C(C)=C\C(=O)O)C(C)(C)CCC1` [isotretinoin], `CN(C/C=C/C#CC(C)(C)C)Cc1cccc2ccccc12` [terbinafine] is higher in “PPB (fb)” value: 0.95 for the first, 0.99 for the second.

Going from `Cc1ncc([N+](=O)[O-])n1CC(O)CCl` (stereo not drawn) [ornidazole] to `COc1cnc(NS(=O)(=O)c2ccc(N)cc2)nc1` [sulfametoxydiazine], the “PPB (fb)” value rises from 0.15 to 0.83.

Same assay, conditions: plasma; cited from earlier work

Going from `CC[C@@H](CO)NC(=O)[C@@H]1C=C2c3cccc4c3c(cn4C)C[C@H]2N(C)C1` [methysergide] to `CCN(CC)C(=O)[C@@H]1C=C2c3cccc4[nH]cc(c34)C[C@H]2N(C)C1` [lysergide], the “PPB (fb)” value rises from 0.66 to 0.9.

Compared with `C#CCN(C)[C@H](C)Cc1ccccc1` [Selegiline], `CC(=O)O[C@H]1C[C@H](O[C@H]2[C@@H](O)C[C@H](O[C@H]3[C@@H](O)C[C@H](O[C@H]4CC[C@@]5(C)[C@H](CC[C@@H]6[C@@H]5C[C@@H](O)[C@]5(C)[C@@H](C7=CC(=O)OC7)CC[C@]65O)C4)O[C@@H]3C)O[C@@H]2C)O[C@H](C)[C@H]1O` [alpha-acetyldigoxin] is lower in “PPB (fb)” value: 0.9 for the first, 0.25 for the second.

Going from `c1ccc(C2(N3CCCCC3)CCCCC2)cc1` [Phencyclidine] to `CCCCCCCC(=O)NC1C(=O)N2C1SC(C)(C)C2C(=O)O` (stereo not drawn) [penicillin3], the “PPB (fb)” value rises from 0.68 to 0.92.

First: Fc1ccccc1C1=NCC(=S)N(CC(F)(F)F)c2ccc(Cl)cc21 [quazepam]
Second: Doxycycline
The “PPB (fb)” value of the first is higher: 0.95 for the first, 0.89 for the second.

In the case of `CC(=O)C1(O)CCC2C3CCC4=CC(=O)CCC4(C)C3CCC21C` (stereo not drawn) [17-hydroxyprogesterone], the “PPB (fb)” value is listed as 0.85.
